Source: patent US10562944B2, “Herbicide-resistant protein, encoding gene and use thereof” (BEIJING DABEINONG BIOTECHNOLOGY CO., LTD., priority 2015, dated 2020)

Tests used:
[1] = test system: Soybean plants containing 24DT21 nucleotide sequence (S1, S2, S3); test: Herbicide-resistance effect of transgenic soybean T1 plants (spraying, damage degree); type: in vivo; conditions: 2240 g ae/ha (4x); for Average damage % 6 HAT: 6 hours after spraying; for Average damage % 2 DAT: 2 days after spraying; for Average damage % 7 DAT: 7 days after spraying; for Average damage % 14 DAT: 14 days after spraying
Protocol: (§1) Herbicide resistance effects tests to 2,4-D dimethyl ammonium salt and agroxone of soybean plants containing 24DT21 nucleotide sequence and control nucleotide sequence respectively and wild type soybean plants (stages V3-V4) were performed respectively.
(§2) Soybean plants containing 24DT21 nucleotide sequence, control nucleotide sequence and wild type soybean plants were taken and spayed with 2,4-D dimethyl ammonium salt (2240 g ae/ha, four-folds concentration in field), agroxone (2240 g ae/ha, four-folds concentration in field) and blank solvent (water). Take statistics of the damage degree of each plant caused by herbicides according to the curling degree of leaves and the damage degree of growing point six hours ([…]), two days (2DAT), seven days (7DAT) and 14 days (14DAT) after spraying respectively: if leaves are flat like wild-type leaves and the growing point is intact, the damage degree is 0%; if leaves curl up and wilt and the growing point is died, the damage degree is 100%. There are three strains contained a transferred 24DT21 nucleotide sequence (S1, S2 and S3), two strains contained a transferred control sequence (S4 and S5) and one wild-type strain (CK1) in total; select 10˜15 plants from each strain for testing.

[2] = test system: wild-type Arabidopsis plants; test: Herbicide resistance effect test of wild-type Arabidopsis (spraying); type: in vivo, Arabidopsis thaliana; conditions: genotype Wild, 560 g ae/ha (1x)
Description: (§3) 24DT21 gene was used to transform Arabidopsis for the first time. At first, T1 transformants were selected from the background of un-transformed seeds, using glufosinate-ammonium selection scheme. About 20000 T1 seeds are screened among which 139 strains of T1 generation positive transformants (PAT gene) were identified, i.e. the transformation efficiency was about 0.7%. Herbicide resistance effect tests to 2,4-D dimethyl ammonium salt and agroxone of Arabidopsis T1 plants transformed with 24DT21 nucleotide sequence, control nucleotide sequence respectively and wild-type Arabidopsis plants were performed after 18 days of planting.
(§4) Arabidopsis T1 plants transformed with 24DT21 nucleotide sequence, control nucleotide sequence respectively and wild-type Arabidopsis plants were sprayed with 2,4-D dimethyl ammonium salt (560 g ae/ha, 1-fold concentration in field), agroxone (560 g ae/ha, 1-fold concentration in field) and blank solvent (water). Resistance conditions of the plants were counted 7 days and 14 days after spraying. Plants with growth conditions consistent with blank solvent (water) 7 days after spaying were classified as highly resistant plants; Plants with curly rosette leaves 7 days after spaying were classified as moderately resistant plants; Plants incapable of bolting 14 days after spaying were classified as low-resistant plants and the dead plants 14 days after spaying were classified as non-resistant plants. Because each Arabidopsis T1 plant is an independent transformation event, significant differences of individual T1 responses can be expected under a given dose.

[3] = test system: wild type soybean plants (CK1); test: Herbicide-resistance effect of wild type soybean (spraying, damage degree); type: in vivo; conditions: wild-type soybean strain CK1, 2240 g ae/ha (4x)
Protocol: as §1, §2

[4] = test system: Corn plants containing 24DT21 nucleotide sequence (S6, S7, S8); test: Herbicide-resistance effect test of transgenic corn T1 plants (spraying, prop root development); type: in vivo; conditions: 8960 g ae/ha (16x), 21 days after spraying; for Abnormal development of brace roots / Normal development of brace roots: number of plants
Protocol: (§5) Herbicide resistance effects tests to 2,4-D dimethyl ammonium salt and agroxone of corn plants containing 24DT21 nucleotide sequence, control nucleotide sequence respectively and wild type corn plants (stages V3-V4) were performed respectively.
(§6) Corn plants containing 24DT21 nucleotide sequence, control nucleotide sequence respectively and wild type corn plants were taken and spayed with 2,4-D dimethyl ammonium salt (8960 g ae/ha, 16-folds concentration in field), agroxone (8960 g ae/ha, 16-folds concentration in field) and blank solvent (water) respectively. Prop root development was counted 21 days after spaying. Three strains (S6, S7 and S8) of corn plants transformed with 24DT21 nucleotide sequence, two strains (S9 and S10) of corn plants transformed with control nucleotide sequence and 1 strain of wild type (CK2) corn were selected and 10-15 plants from each stain were tested.

[5] = test system: wild type corn plants (CK2); test: Herbicide-resistance effect test of wild type corn (spraying, prop root development); type: in vivo; conditions: wild type corn strain CK2, 8960 g ae/ha (16x), 21 days after spraying
Protocol: as §5, §6

[6] = test system: Arabidopsis T1 plants transformed with control nucleotide sequence; test: Herbicide resistance effect test of Arabidopsis T1 plants, control sequence (spraying); type: in vivo, Arabidopsis thaliana; conditions: genotype Control, 560 g ae/ha (1x)
Description: as §3, §4

[7] = test system: Arabidopsis T1 plants transformed with 24DT21 nucleotide sequence; test: Herbicide resistance effect test of transgenic Arabidopsis T1 plants (spraying); type: in vivo, Arabidopsis thaliana; conditions: genotype 24DT21, 560 g ae/ha (1x)
Description: as §3, §4

[8] = test system: Corn plants containing control nucleotide sequence (S9, S10); test: Herbicide-resistance effect test of corn plants, control sequence (spraying, prop root development); type: in vivo; conditions: 8960 g ae/ha (16x), 21 days after spraying; for Abnormal development of brace roots / Normal development of brace roots: number of plants
Protocol: as §5, §6

[9] = test system: Soybean plants containing control nucleotide sequence (S4, S5); test: Herbicide-resistance effect of soybean plants, control sequence (spraying, damage degree); type: in vivo; conditions: 2240 g ae/ha (4x); for Average damage % 6 HAT: 6 hours after spraying; for Average damage % 2 DAT: 2 days after spraying; for Average damage % 7 DAT: 7 days after spraying; for Average damage % 14 DAT: 14 days after spraying
Protocol: as §1, §2

[10] = number of plants of 32 dead 14 days after spraying
[11] = number of plants of 32 incapable of bolting 14 days after spraying
[12] = number of plants of 32 with curly rosette leaves 7 days after spraying
[13] = number of plants of 32 with growth consistent with blank solvent 7 days after spraying
[14] = corn strain S9 (control sequence)
[15] = corn strain S10 (control sequence)
[16] = soybean strain S4 (control sequence)
[17] = soybean strain S5 (control sequence)

In the case of `CNC.O=C(O)COc1ccc(Cl)cc1Cl` [2,4-D dimethyl ammonium salt], the “Average damage % 6 HAT” value ([1]; soybean strain S1 (24DT21)) is reported as 6%, the “Average damage % 2 DAT” value ([1]; soybean strain S1 (24DT21)) is reported as 4% and the “Average damage % 7 DAT” value ([1]; soybean strain S1 (24DT21)) is reported as 0%. For the same molecule, the “Average damage % 14 DAT” value ([1]; soybean strain S1 (24DT21)) was 0%, the “Average damage % 6 HAT” value ([1]; soybean strain S2 (24DT21)) was 11% and the “Average damage % 2 DAT” value ([1]; soybean strain S2 (24DT21)) was 4%. The “Average damage % 7 DAT” value ([1]; soybean strain S2 (24DT21)) was 0%, the “Average damage % 14 DAT” value ([1]; soybean strain S2 (24DT21)) was 0% and the “Average damage % 6 HAT” value ([1]; soybean strain S3 (24DT21)) was 3%. The “Average damage % 2 DAT” value ([1]; soybean strain S3 (24DT21)) was 0%, the “Average damage % 7 DAT” value ([1]; soybean strain S3 (24DT21)) was 0% and the “Average damage % 14 DAT” value ([1]; soybean strain S3 (24DT21)) was 0%. It also gave a Non-resistant [2, 10] of 32, a Low resistant [2, 11] of 0 and a Moderate resistant [2, 12] of 0. For the same molecule, the High resistant [2, 13] was 0, the “Average damage % 6 HAT” value ([3]; 6 hours after spraying) was 48% and the “Average damage % 2 DAT” value ([3]; 2 days after spraying) was 72%. For the same molecule, the “Average damage % 7 DAT” value ([3]; 7 days after spraying) was 94%, the “Average damage % 14 DAT” value ([3]; 14 days after spraying) was 100% and the “Proportion of normal development of brace roots” value (shortened to “Proportion”) ([4]; corn strain S6 (24DT21)) was 100.00%. For the same molecule, the “Abnormal development of brace roots” value ([4]; corn strain S6 (24DT21)) was 0, the “Normal development of brace roots” value ([4]; corn strain S6 (24DT21)) was 12 and the “Proportion” value ([4]; corn strain S7 (24DT21)) was 100.00%. For the same molecule, the “Abnormal development of brace roots” value ([4]; corn strain S7 (24DT21)) was 0, the “Normal development of brace roots” value ([4]; corn strain S7 (24DT21)) was 13 and the “Proportion” value ([4]; corn strain S8 (24DT21)) was 100.00%. For the same molecule, the “Abnormal development of brace roots” value ([4]; corn strain S8 (24DT21)) was 0, the “Normal development of brace roots” value ([4]; corn strain S8 (24DT21)) was 11 and the “Proportion” value [5] was 0%. For the same molecule, the “Abnormal development of brace roots” value ([5]; number of plants) was 15, the “Normal development of brace roots” value ([5]; number of plants) was 0 and the Non-resistant [6, 10] was 32. It also gave a Low resistant [6, 11] of 0, a Moderate resistant [6, 12] of 0 and a High resistant [6, 13] of 0. For the same molecule, the Non-resistant [7, 10] was 4, the Low resistant [7, 11] was 1 and the Moderate resistant [7, 12] was 3. For the same molecule, the High resistant [7, 13] was 24, the “Proportion” value [8, 14] was 0% and the “Abnormal development of brace roots” value [8, 14] was 12. The “Normal development of brace roots” value [8, 14] was 0, the “Proportion” value [8, 15] was 0% and the “Abnormal development of brace roots” value [8, 15] was 11. For the same molecule, the “Normal development of brace roots” value [8, 15] was 0, the “Average damage % 6 HAT” value [9, 16] was 46% and the “Average damage % 2 DAT” value [9, 16] was 76%. For the same molecule, the “Average damage % 7 DAT” value [9, 16] was 96%, the “Average damage % 14 DAT” value [9, 16] was 100% and the “Average damage % 6 HAT” value [9, 17] was 53%. For the same molecule, the “Average damage % 2 DAT” value [9, 17] was 77%, the “Average damage % 7 DAT” value [9, 17] was 91% and the “Average damage % 14 DAT” value [9, 17] was 100%.
